# From patent US20070037823A1, “Substituted piperidine and piperazine derivatives as melanocortin-4 receptor modulators” (priority 2003, published 2007)
# What was measured:
# hMC4-R [1] = biological target: T1, hMC4-R (Homo sapiens, UniProt P32245); assay: Membrane binding assay, fluorescence labeled NDP-alpha-MSH competition (fluorescence polarization); settings: HEK293 cell membrane preparations
# T1 construct: expressed in transfected cells; host or cells: HEK293 cells
# Experimental: A membrane binding assay is used to identify competitive inhibitors of fluorescence labeled NDP-alpha-MSH binding to HEK293 cell membrane preparations expressing human melanocortin receptors.
# The test compound or unlabeled NDP-alpha-MSH is dispensed at varying concentrations to a 384 well microtiter plate. Fluorescence labeled NDP-alpha-MSH is dispensed at a single concentration, followed by addition of membrane preparations. The plate is incubated for 5 h at room temperature.
# The degree of fluorescence polarization is determined with a fluorescence polarization microplate reader.
# hMC4-R [2] = biological target: T1, hMC4-R; assay: Functional cellular cAMP assay in HEK293 cells (fluorescence polarization); assay type: cell-based; settings: for % activation functional assay: cAMP compared to stimulation with NDP-alpha-MSH; for EC50: HEK293 cells, cAMP production
# Experimental: A functional cellular assay, based on competition between unlabeled cAMP and a fixed quantity of fluorescence labeled cAMP for a limited number of binding sites on a cAMP specific antibody, is used to discriminate melanocortin receptor agonists from antagonists by fluorescence polarization.
# HEK293 cells expressing one of the human melanocortin receptors are transferred to 384 well microtiter plates, an appropriate amount of cAMP antibody is added, followed by the addition of different concentrations of the test compound to effect cAMP production. Cells are lysed and a fluorescence labeled cAMP conjugate is dispensed. The plate is read on a fluorescence polarization microplate reader and the amount of cAMP produced as a response to a test compound is compared to the production of CAMP resulting from stimulation with NDP-alpha-MSH. […]
# male Wistar rats = assay: Spontaneous feeding paradigm (food intake); assay type: in vivo, rat; settings: 10 mg/kg p.o.; for increase in cumulative food intake: compared to vehicle control
# Experimental: Food intake in rats is measured after i.p. or p.o. administration of the test compound (see e.g. Chen, A. S. et al. Transgenic Res April 2000; 9(2):145-54).
# 3-4 Hours following the onset of the light-phase, individually housed, male Wistar rats (200-300 g) receive an ip injection or po application of test compound or vehicle in an administration volume of 2 ml/kg. Following the administration of substances (1-30 mg/kg), a pre-weighed amount of normal laboratory chow is placed into the food hopper. Food remaining is measured by hand at 1-2 hour intervals for up to 8 hours. Differences in food intake between test-compound and vehicle-treated rats are evaluated.
# [3] = 2 hours following administration
# [4] = 4 hours following administration
# T1 sequence (P32245 whole entry): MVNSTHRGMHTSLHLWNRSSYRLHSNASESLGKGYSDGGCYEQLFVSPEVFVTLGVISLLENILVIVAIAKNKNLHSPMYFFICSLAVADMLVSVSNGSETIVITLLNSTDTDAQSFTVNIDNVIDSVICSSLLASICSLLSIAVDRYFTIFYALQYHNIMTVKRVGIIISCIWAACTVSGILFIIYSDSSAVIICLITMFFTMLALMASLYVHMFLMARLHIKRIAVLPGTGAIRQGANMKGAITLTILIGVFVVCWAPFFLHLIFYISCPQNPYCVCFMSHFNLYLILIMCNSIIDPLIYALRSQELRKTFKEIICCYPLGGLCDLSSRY
SMILES,IC50 (hMC4-R [1]) [µM],% activation functional assay (hMC4-R [2]),EC50 (hMC4-R [2]) [µM],activity in the spontaneous feeding paradigm (increase in food intake) (male Wistar rats),increase in cumulative food intake (male Wistar rats; [3]) [%],increase in cumulative food intake (male Wistar rats; [4]) [%],increase in cumulative food intake (male Wistar rats; 6 hours following administration) [%]
CC(C)(C)NC(=O)C1(C2CCCCC2)CCN(CC[C@H](Cc2ccc(Cl)cc2)NC(=O)[C@H]2Cc3ccccc3CN2)CC1.Cl [Example 6],1,no activation,,,,,
CC(C)(C)NC(=O)C1(C2CCCCC2)CCN(C[C@@H](Cc2ccc(Cl)cc2)NC(=O)[C@@H]2Cc3ccccc3CN2)CC1.Cl [Example 3],0.42,no activation,,,,,
CC(C)(C)NC(=O)C1(C2CCCCC2)CCN(CC[C@@H](Cc2ccc(Cl)cc2)NC(=O)[C@H]2Cc3ccccc3CN2)CC1.Cl [Example 5],2.5,52%,8,,,,
CC(C)(C)NC(=O)C1(C2CCCCC2)CCN(CC[C@H](Cc2ccc(Cl)cc2)NC(=O)c2cc(=O)c3ccccc3o2)CC1 [Example 31],0.061,no activation,,active,1100,380,
CC(C)(C)NC(=O)C1(C2CCCCC2)CCN(CC[C@@H](Cc2ccc(Cl)cc2)NC(=O)c2cc(=O)c3ccccc3o2)CC1 [Example 30],2.1,no activation,,,,,
CC(C)(C)NC(=O)C1(C2CCCCC2)CCN(C[C@H](Cc2ccc(Cl)cc2)NC(=O)[C@H]2Cc3ccccc3CN2)CC1.Cl [Example 1],0.7,no activation,,active,2700,700,175
CC(C)(C)NC(=O)C1(C2CCCCC2)CCN(C[C@@H](Cc2ccc(Cl)cc2)NC(=O)[C@H]2Cc3ccccc3CN2)CC1.Cl [Example 2],0.72,80%,3.1,,,,
CC(C)(C)NC(=O)C1(C2CCCCC2)CCN(C[C@@H](Cc2ccc(Cl)cc2)NC(=O)c2cc(=O)c3ccccc3o2)CC1 [Example 29],2.6,no activation,,,,,
CC(C)(C)NC(=O)C1(C2CCCCC2)CCN(C[C@H](Cc2ccc(Cl)cc2)NC(=O)c2cc(=O)c3ccccc3o2)CC1 [Example 28],2.3,no activation,,,,,
